In one assay the test system is E. coli LZ3111. Kind of assay: Antibacterial activity, MIC, quinolone resistant strain (Table 2). The class given is cell-based. The following applies: Escherichia coli, LZ3111, read-out: MIC LZ3111. Put shortly:
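Lowest concentration giving no macroscopically visible growth was taken as the MIC (μg/mL) after microbroth dilution testing.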

Assay [1] deals with Neisseria meningitidis (N. meningitidis) 13090. Kind of assay: Antibacterial activity, MIC (Table 8). The class given is cell-based. An excerpt:
The antibacterial activity from a microbroth dilution method may be presented as the minimum inhibitory concentration (MIC in μg/mL). The MIC value is the lowest concentration of drug which prevents macroscopically visible growth under test conditions.
Antibacterial activity of test compounds against the Gram-negative bacteria Haemophilus influenzae (H. influenzae) 49247 is shown in Table 6, Moraxella catarrhalis (M. catarrhalis) 25238 is shown in Table 7 and Neisseria meningitidis (N. meningitidis) 13090 is shown in Table 8.

Assay [2] concerns Klebsiella pneumoniae (K. pneumoniae) 35657. The assay is described as follows: Antibacterial activity, MIC (Table 4). The class given is cell-based. The following applies: K. pneumoniae 35657, read-out: MIC, 35657. In outline:
(§1)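 Activity was measured by microbroth dilution. The MIC, in μg/mL, is the lowest drug concentration that prevents macroscopically visible growth under the test conditions. The resistant strains are multi-drug resistant clinical isolates.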

Assay [3] has as its system Acinetobacter baumannii (A. baumannii) BAA747. The assay is described as follows: Antibacterial activity, MIC (Table 4). The class given is cell-based. The following applies: A. baumannii BAA747, read-out: MIC, BAA747. Put shortly:
as §1

For another assay, the system named is E. coli 25922. Kind of assay: Antibacterial activity, microbroth dilution MIC (Table 1). The class given is cell-based, Escherichia coli. The note with it: Escherichia coli; microbroth dilution; control Gram-negative E. coli 25922 strain; read-out: MIC, 25922. Put shortly: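 Potency is reported as minimum inhibitory concentration in μg/mL, determined by broth microdilution as the lowest level of compound that stops growth visible to the eye.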

In assay [4] the test system is Escherichia coli (E. coli) BAS849. Described as above. The class given is cell-based. The following applies: microbroth dilution, super sensitive Gram-negative E. coli BAS849, read-out: MIC, BAS849. Put shortly:
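Lowest concentration stopping macroscopically visible growth under test conditions, by broth microdilution, defines the MIC (μg/mL).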

In assay [5] the test system is Staphylococcus aureus (S. aureus) 29213. The description is as above. The note with it: microbroth dilution, Gram-positive S. aureus 29213, read-out: MIC, 29213. The class given is cell-based. In outline: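 Values are MICs (μg/mL): the smallest drug amount at which macroscopically visible bacterial growth is absent under assay conditions, from a microdilution method in broth.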

In the next assay the test system is K. pneumoniae MXX1232. The assay is described as follows: Antibacterial activity, MIC, resistant strain (Table 4). The class given is cell-based. The note with it: Klebsiella pneumoniae, MXX1232; resistant K. pneumoniae MMX1232, multi-drug resistant clinical isolate; read-out: MIC, MMX1232. Put shortly: as §1
In another assay the test system is A. baumannii MXX2240. The description is as above. The class given is cell-based. The following applies: Acinetobacter baumannii, MXX2240; resistant A. baumannii MMX2240, multi-drug resistant clinical isolate; read-out: MIC, MMX2240. In outline: as §1
Assay [6] concerns Pseudomonas aeruginosa (P. aeruginosa) 27853. The assay is described as follows: Antibacterial activity, MIC (Table 5). The class given is cell-based. The note with it: P. aeruginosa 27853, read-out: MIC, 27853. Put shortly:
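MIC in μg/mL from broth microdilution; endpoint is the lowest drug level giving no visible growth.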

In a further assay the test system is E. coli ELZ4251. The assay is described as follows: Antibacterial activity, MIC, multi-drug resistant clinical isolate (Table 3). The class given is cell-based. The note with it: Escherichia coli. In outline: (§2)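 Growth inhibition is measured by microbroth dilution, and the minimum inhibitory concentration in μg/mL corresponds to the lowest drug level that prevents visible bacterial growth.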

The subject of another assay is E. coli ELZ4000. The description is as above. The class given is cell-based. The following applies: Escherichia coli, ELZ4000, read-out: MIC ELZ4000. Put shortly: as §2

≈ marks a conversion by molar mass, not a printed value. Bounds are passed on as bounds.

As to `CCc1cc(C(=O)O)c(=O)[nH]c1-c1ccc2c(c1)cc(CN(C)C)n2C` [Cpd 122, 6-(2-((dimethylamino)methyl)-1-methyl-1H-indol-5-yl)-5-ethyl-2-oxo-1,2-dihydropyridine-3-carboxylic acid], the MIC in the assay with E. coli LZ3111 was 12.5 to 150 µg/mL (≈ 35.4 to 424 µM); in assay [1], less than 1 µg/mL; in [2], less than 1 µg/mL; in assay [3], less than 1 µg/mL; in the assay with E. coli 25922 it was less than 1 µg/mL; in assay [4], less than 1 µg/mL. Moreover, the MIC in assay [5] is 12.5 to 150 µg/mL (≈ 35.4 to 424 µM); in the assay with K. pneumoniae MXX1232 it was 12.5 to 150 µg/mL (≈ 35.4 to 424 µM); in the assay on A. baumannii MXX2240, 12.5 to 150 µg/mL (≈ 35.4 to 424 µM); in [6] it was 3.5 to 12.5 µg/mL (≈ 9.9 to 35.4 µM); with E. coli ELZ4251, 12.5 to 150 µg/mL (≈ 35.4 to 424 µM); with E. coli ELZ4000, 12.5 to 150 µg/mL (≈ 35.4 to 424 µM).
Consider `CCc1cc(C(=O)O)c(=O)[nH]c1-c1ccc2c(c1)cc(CN1CCCC1)n2C` [Cpd 124, 5-ethyl-6-(1-methyl-2-(pyrrolidin-1-ylmethyl)-1H-indol-5-yl)-2-oxo-1,2-dihydropyridine-3-carboxylic acid], for which the MIC in the assay with E. coli LZ3111 is 12.5 to 150 µg/mL (≈ 32.9 to 395 µM); in assay [1], less than 1 µg/mL; in assay [2], 1 to 3.5 µg/mL (≈ 2.64 to 9.22 µM); in [3], less than 1 µg/mL; in the assay on E. coli 25922 it was less than 1 µg/mL; in assay [4], less than 1 µg/mL. The MIC in assay [5] fell in the range of 12.5 to 150 µg/mL (≈ 32.9 to 395 µM); with K. pneumoniae MXX1232, 12.5 to 150 µg/mL (≈ 32.9 to 395 µM); in the assay with A. baumannii MXX2240, 12.5 to 150 µg/mL (≈ 32.9 to 395 µM); in assay [6] it was 3.5 to 12.5 µg/mL (≈ 9.22 to 32.9 µM); in the assay on E. coli ELZ4251, 12.5 to 150 µg/mL (≈ 32.9 to 395 µM); with E. coli ELZ4000 it was 12.5 to 150 µg/mL (≈ 32.9 to 395 µM).
In the case of `CCc1cc(C(=O)O)c(=O)[nH]c1-c1ccc2c(c1)cc1n2CCC1N(C)C` (stereo not drawn) [Cpd 152, 6-(1-(dimethylamino)-2,3-dihydro-1H-pyrrolo[1,2-a]indol-7-yl)-5-ethyl-2-oxo-1,2-dihydropyridine-3-carboxylic acid], the MIC in the assay on E. coli LZ3111 is 12.5 to 150 µg/mL (≈ 34.2 to 410 µM); in assay [2], less than 1 µg/mL; in [3] it was 3.5 to 12.5 µg/mL (≈ 9.58 to 34.2 µM); with E. coli 25922, less than 1 µg/mL; in [4], less than 1 µg/mL; in assay [5] it was 12.5 to 150 µg/mL (≈ 34.2 to 410 µM). Moreover, the MIC (with K. pneumoniae MXX1232; in the assay with A. baumannii MXX2240; in assay [6]; with E. coli ELZ4251; with E. coli ELZ4000) was 12.5 to 150 µg/mL (≈ 34.2 to 410 µM) each time.
Consider `CCc1cc(C(=O)O)c(=O)[nH]c1-c1ccc2c(c1)cc(CCN1CCCC1)n2C` [Cpd 159, 5-ethyl-6-(1-methyl-2-(2-(pyrrolidin-1-yl)ethyl)-1H-indol-5-yl)-2-oxo-1,2-dihydropyridine-3-carboxylic acid], for which the MIC in the assay with E. coli LZ3111 is 12.5 to 150 µg/mL (≈ 31.8 to 381 µM); in assay [2], less than 1 µg/mL; in assay [3], 3.5 to 12.5 µg/mL (≈ 8.89 to 31.8 µM); in the assay on E. coli 25922, less than 1 µg/mL; in assay [4], less than 1 µg/mL; in assay [5], 12.5 to 150 µg/mL (≈ 31.8 to 381 µM). For the same compound, the MIC lay within 12.5 to 150 µg/mL (≈ 31.8 to 381 µM) with K. pneumoniae MXX1232; 12.5 to 150 µg/mL (≈ 31.8 to 381 µM) with A. baumannii MXX2240; 3.5 to 12.5 µg/mL (≈ 8.89 to 31.8 µM) in [6]; 12.5 to 150 µg/mL (≈ 31.8 to 381 µM) against E. coli ELZ4251; 12.5 to 150 µg/mL (≈ 31.8 to 381 µM) with E. coli ELZ4000.
Consider `CCc1cc(C(=O)O)c(=O)[nH]c1-c1ccc2c(c1)cc(CCN1CCCCC1)n2C` [Cpd 160, 5-ethyl-6-(1-methyl-2-(2-(piperidin-1-yl)ethyl)-1H-indol-5-yl)-2-oxo-1,2-dihydropyridine-3-carboxylic acid], for which the MIC in the assay with E. coli LZ3111 is 12.5 to 150 µg/mL (≈ 30.7 to 368 µM); in assay [2] it was less than 1 µg/mL; in assay [3], 1 to 3.5 µg/mL (≈ 2.45 to 8.59 µM); in the assay with E. coli 25922 it was less than 1 µg/mL; in assay [4] it was less than 1 µg/mL; in assay [5], 12.5 to 150 µg/mL (≈ 30.7 to 368 µM). Besides, the MIC (with K. pneumoniae MXX1232; with A. baumannii MXX2240; in [6]; against E. coli ELZ4251; in the assay with E. coli ELZ4000) was 12.5 to 150 µg/mL (≈ 30.7 to 368 µM) each time.

Source of the values: patent US9409905B2, “Antibacterial compounds and methods for use” (PTC THERAPEUTICS, INC., priority 2011, dated 2016).
